In patent US20220118117A1, “MODULATORS OF METABOTROPIC GLUTAMATE RECEPTOR 4” (The General Hospital Corporation, priority 2019, published 2022):

Legend:
[1] = plasma protein binding, ultrafiltration assay using [18F]15; format: in vitro ADME; details: human plasma
Protocol: Plasma Protein Binding Assay. An aliquot of radiolabeled compound [^18F]15 in saline (10 μL, 74 kBq) was added to a sample of human plasma (0.5 mL). The mixture was gently mixed by repeated inversion and incubated for 10 min at room temperature. Following incubation, a small sample (10 μL) was removed to determine the total radioactivity in the plasma sample (AT; AT=Abound+Aunbound). The upper part of the Centrifree tube was discarded, and an aliquot (10 μL) from the bottom part of the tube was removed to determine the amount of unbound radioactivity (Aunbound) that passed through the membrane (molecular weight cutoff 30 kD). The radioactivity of each sample was measured using PerkinElmer Wizard2 2480 gamma-counter. Plasma protein binding was derived by the following equation: % unbound=Aunbound×100/AT.
As the PET tracer is delivered into the bloodstream, it can bind to albumin, α1-acid glycoprotein and lipoproteins. Plasma protein binding reduces the free drug in the bloodstream and inhibits BBB penetration to reach the brain target. (Ref 44) The PPB value was obtained with an ultrafiltration assay by using [^18F]15. […] These pharmacological properties along with other molecular properties such as MW, tPSA and HBO are in the range normally considered favorable for a PET ligand.

solution stability = format: physicochemical
Protocol: Three pH values, 5, 7.4 and 9.4 were selected to check the solution stability. Aqueous solutions with different pH values were established using the following buffers: sodium acetate-KCl—HCl buffer (20 mM, pH 5.0), phosphate buffer (20 mM, pH 7.4), and boric acid-KCl—NaOH buffer (20 mM, pH 9.4). 891 μL of each pH buffer was placed in different tubes. 9 μL (1 mM) of the sample stock (4, 13, 15 and Diltiazem) was transferred to a particular buffer tube and mixed just before the time 0 min. The mixture was vortexed and incubated at 37° C. After the incubation at the different time points (0, 15, 30, 60, and 120 min), aliquots of 50 μL samples were quenched with 100 μL of ice-cold acetonitrile with 25 μM internal reference, respectively, and analyzed by HPLC. The percentage of the remaining intact compound was calculated by (peak area at the specific time point)/(peak area at 0 min)×100. Every sample was assayed three times.

- PPB (plasma protein binding) [1]: 93.1%
- The solution stability, The intact ± SEM at 120 min (%) (solution stability; pH = 5.0, 37° C.): 87.1 ± 0.9%
- The solution stability, The intact ± SEM at 120 min (%) (solution stability; pH = 7.4, 37° C.): 88.3 ± 1.9%
- The solution stability, The intact ± SEM at 120 min (%) (solution stability; pH = 9.4, 37° C.): 84.3 ± 1.8%
Structure (SMILES): [2H]C([2H])(F)Sc1cc(NC(=O)c2ccccn2)ccc1Cl [Compound 15, N-(4-Chloro-3-((fluoromethyl-d2)thio)phenyl)picolinamide]
